Measured values: patent US7192974B2, “Hydroxymethyl substituted dihydroisoxazole derivatives useful as antibiotic agents” (AstraZeneca AB, priority 2003, dated 2007)
In brackets after ≈: the same amount, converted by molar mass. Where two headings read alike, the source gives them in different places. One block for each molecule: values may come before it.

Key:
[1] = target: T1, MAO-A (Homo sapiens, UniProt P21397); experiment: MAO-A in-vitro assay, human liver enzyme expressed in yeast; type: biochemical
T1 construct: made in house; host or cells: yeast
T1 sequence (P21397 1-527): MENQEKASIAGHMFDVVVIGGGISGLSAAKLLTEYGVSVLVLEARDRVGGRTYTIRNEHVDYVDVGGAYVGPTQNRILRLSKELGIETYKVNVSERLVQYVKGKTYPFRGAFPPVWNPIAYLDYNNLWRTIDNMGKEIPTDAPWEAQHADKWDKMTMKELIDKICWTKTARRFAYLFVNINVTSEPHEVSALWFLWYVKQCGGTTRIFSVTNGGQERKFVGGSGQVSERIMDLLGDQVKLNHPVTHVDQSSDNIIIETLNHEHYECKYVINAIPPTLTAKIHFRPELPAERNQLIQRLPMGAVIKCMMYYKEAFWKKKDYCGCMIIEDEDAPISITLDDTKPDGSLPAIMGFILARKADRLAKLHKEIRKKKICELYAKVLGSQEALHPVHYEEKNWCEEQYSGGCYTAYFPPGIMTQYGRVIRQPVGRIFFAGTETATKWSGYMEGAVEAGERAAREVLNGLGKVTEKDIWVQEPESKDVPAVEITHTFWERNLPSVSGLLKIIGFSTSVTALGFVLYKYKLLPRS
Experimental: The activity of the compounds of the invention against MAO-A was tested using a standard in-vitro assay based on human liver enzyme expressed in yeast as described in Biochem. Biophys. Res. Commun. 1991, 181, 1084–1088.

[2] = system: Staphylococcus aureus MRQR; experiment: MIC by agar-dilution, Staphylococci on agar; type: cell-based; details: MRQR = methicillin resistant and quinolone resistant, inoculum 10^4 CFU/spot, 37° C., 24 hours
Experimental: (§1) The following results were obtained on a standard in-vitro test system. The activity is described in terms of the minimum inhibitory concentration (MIC) determined by the agar-dilution technique with an inoculum size of 10^4 CFU/spot. Typically, compounds are active in the range 0.01 to 256 μg/ml.
(§2) Staphylococci were tested on agar, using an inoculum of 10^4 CFU/spot and an incubation temperature of 37° C. for 24 hours—standard test conditions for the expression of methicillin resistance.

[3] = system: Staphylococcus aureus MSQS; experiment: MIC by agar-dilution, Staphylococci on agar; type: cell-based; details: MSQS = methicillin sensitive and quinolone sensitive, inoculum 10^4 CFU/spot, 37° C., 24 hours
Experimental: as §1, §2

[4] = system: Streptococcus pneumoniae; experiment: MIC, Streptococci on agar with 5% defibrinated horse blood; type: cell-based; details: 5% carbon dioxide, 48 hours
Experimental: (§3) The following results were obtained on a standard in-vitro test system. The activity is described in terms of the minimum inhibitory concentration (MIC) determined by the agar-dilution technique with an inoculum size of 10^4 CFU/spot. Typically, compounds are active in the range 0.01 to 256 μg/ml. Streptococci and enterococci were tested on agar supplemented with 5% defibrinated horse blood, an inoculum of 10^4 CPU/spot and an incubation temperature of 37° C. in an atmosphere of 5% carbon dioxide for 48 hours—blood is required for the growth of some of the test organisms. Fastidious Gram negative organisms were tested in Mueller-Hinton broth, supplemented with hemin and NAD, grown aerobically for 24 hours at 37° C., and with an innoculum of 5×10^4 CFU/well.

[5] = system: Haemophilus influenzae; experiment: MIC, fastidious Gram negative organisms in Mueller-Hinton broth; type: cell-based; details: Mueller-Hinton broth with hemin and NAD, 24 hours, 5×10^4 CFU/well
Experimental: as §3

[6] = system: Moraxella catarrhalis; experiment: as above; type: cell-based; details: Mueller-Hinton broth with hemin and NAD, 24 hours, 5×10^4 CFU/well
Experimental: as §3

Ki ([1]; human liver enzyme expressed in yeast, read-out: Ki value (MAO-A)): 20 µM | MIC [2]: 0.5 µg/mL (≈ 1.14 µM) | MIC [3]: 0.25 µg/mL (≈ 0.57 µM) | MIC [4]: 0.02 µg/mL (≈ 0.0456 µM) | MIC [5]: 4 µg/mL (≈ 9.12 µM) | MIC [6]: 0.5 µg/mL (≈ 1.14 µM)
Compound: O=C1O[C@@H](Cn2ccnn2)CN1c1ccc(-c2ccc(C3=NO[C@H](CO)C3)nc2)c(F)c1 [Example 1, (5R)-3-(3-Fluoro-4-{6-[(5S)-5-(hydroxymethyl)-4,5-dihydroisoxazol-3-yl]pyridin-3-yl}phenyl)-5-(1H-1,2,3-triazol-1-ylmethyl)-1,3-oxazolidin-2-one]

Ki ([1]; read-out: MAO-A Ki): 0.7 µM
Compound: O=C1O[C@@H](Cn2ccnn2)CN1c1ccc(-c2ccc(C3=NO[C@@H](CO)C3)nc2)c(F)c1 [Example 2, (5R)-3-(3-Fluoro-4-{6-[(5R)-5-(hydroxymethyl)-4,5-dihydroisoxazol-3-yl]pyridin-3-yl}phenyl)-5-(1H-1,2,3-triazol-1-ylmethyl)-1,3-oxazolidin-2-one]

Ki ([1]; read-out: MAO-A Ki): 9 µM
Compound: CC(=O)NC[C@H]1CN(c2ccc(-c3ccc(C4=NO[C@H](CO)C4)nc3)c(F)c2)C(=O)O1 [Example 3, N-{[(5S)-3-(3-Fluoro-4-{6-[(5S)-5-(hydroxymethyl)-4,5-dihydroisoxazol-3-yl]pyridin-3-yl}phenyl)-2-oxo-1,3-oxazolidin-5-yl]methyl}acetamide]

Ki ([1]; read-out: MAO-A Ki): 3 µM
Compound: CC(=O)NC[C@H]1CN(c2ccc(-c3ccc(C4=NO[C@@H](CO)C4)nc3)c(F)c2)C(=O)O1 [Example 4, N-{[(5S)-3-(3-Fluoro-4-{6-[(5R)-5-(hydroxymethyl)-4,5-dihydroisoxazol-3-yl]pyridin-3-yl}phenyl)-2-oxo-1,3-oxazolidin-5-yl]methyl}acetamide]
